Patent publication US11304974B2, “Nanosystems comprising silver and antibiotics and their use for the treatment of bacterial infections” (priority 2017, dated 2022)

Experiments:
Ps. aeruginosa MEXR [1] = experiment: Agar diffusion antibiogram (Example 1); assay type: cell-based, Pseudomonas aeruginosa; settings: by order of Table 1 Ps. aeruginosa MEXR; concentration 50 μg/ml
Procedure: (§1) From the stock cultures, which were maintained at −80±5° C., revitalization of the strains (TSB, TSA and blood agar cultures, incubation at 37° C., 24 h) and preparation of working cultures (maintenance at 5° C.±3° C.) was carried out.
(§2) The study of microbial activity of the products was performed by the agar diffusion method (antibiograms). Preliminary experiments were performed to adjust the concentration of each strain to obtain a homogeneous field, and select the appropriate culture medium (in this case, Mueller Hinton agar). Whenever possible, large Petri plates (135 mm diameter) were used, but when the halo was too large, several plates of 90 mm diameter were used to test all the products. […] Addition of 1-2 ml of the corresponding dilution to sterile Petri plates (depending on size) and then pouring Mueller Hinton agar, tempered to 45° C. Allowing the agar to solidify at room temperature and then practicing wells in which the products to be tested will be placed. • Preparing the test substances in the appropriate concentration (suspension of 1 mg/ml in sterile water and serial dilutions). Placing 50 μl of the chosen concentration in each well (a previous study was done to determine which concentration provided the most appropriate halos in each strain). As a positive control, Penicillin G (at the same concentration) was used. • Incubation of the plates at 37±1° C. for 24 hours. Then the inhibition halos observed in each well were measured and gathered in Table 2 below.

Ps. aeruginosa PAO1 [2] = experiment: Agar diffusion antibiogram (Example 1); assay type: cell-based, Pseudomonas aeruginosa; settings: by order of Table 1 Ps. aeruginosa PAO1; concentration 50 μg/ml
Procedure: as §1, §2

Ps. aeruginosa VIM2 [3] = experiment: Agar diffusion antibiogram (Example 1); assay type: cell-based, Pseudomonas aeruginosa; settings: by order of Table 1 Ps. aeruginosa VIM2; concentration 50 μg/ml
Procedure: as §1, §2

Ps. aeruginosa OPRD [4] = experiment: Agar diffusion antibiogram (Example 1); assay type: cell-based, Pseudomonas aeruginosa; settings: by order of Table 1 Ps. aeruginosa OPRD; concentration 50 μg/ml
Procedure: as §1, §2

E. coli W207 BLEE+ [5] = experiment: Agar diffusion antibiogram (Example 2); assay type: cell-based, Escherichia coli; settings: concentration 50 μg/ml
Procedure: as §1
(§3) The study of microbial activity of the products was performed by the agar diffusion method (antibiograms). Preliminary experiments were performed to adjust the concentration of each strain to obtain a homogeneous field, and the appropriate culture medium (in this case, Mueller Hinton agar) was selected. Whenever possible, large Petri plates (diameter of 135 mm) were used, but when the halo was too large, several plates of 90 mm diameter were used to test all the products. […] Addition of 1-2 ml of the corresponding dilution to sterile Petri plates (depending on size) and then pouring Mueller Hinton agar, tempered to 45° C. Allowing the agar to solidify at room temperature and then practicing wells in which the products will be placed to be tested. • Preparing the test substances in the appropriate concentration (suspension of 1 mg/ml in sterile water and serial dilutions). Placing 50 μl of the chosen concentration in each well (a previous study was done to see which concentration provided the most appropriate halos in each strain). As a positive control Penicillin G (at the same concentration) was used. • Incubation of the plates at 3±1° C. for 24 hours. Then the inhibition halos observed in each well were measured and gathered in Table 4 below.

E. coli AC8 BLEE+ = experiment: Agar diffusion antibiogram (Example 2); assay type: cell-based, Escherichia coli; settings: concentration 50 μg/ml
Procedure: as §1, §3

E. coli C93 BLEE+ [6] = experiment: Agar diffusion antibiogram (Example 2); assay type: cell-based, Escherichia coli; settings: concentration 50 μg/ml
Procedure: as §1, §3

E. coli H24 BLEE+ [7] = experiment: Agar diffusion antibiogram (Example 2); assay type: cell-based, Escherichia coli; settings: concentration 50 μg/ml
Procedure: as §1, §3

K. pneumoniae (BLEE+) = experiment: Agar diffusion antibiogram (Example 1); assay type: cell-based, Klebsiella pneumoniae; settings: by order of Table 1 K. pneumoniae BLEE+ clinical isolate; concentration 200 μg/ml
Procedure: as §1
as §2, with “As a positive control, Penicillin G (at the same concentration) was used. • Incubation of the plates at 37±1° C. for 24 hours.” left out

[8] = tested on: K. pneumoniae ATCC 700603; experiment: Agar diffusion antibiogram (Example 1); assay type: cell-based, Klebsiella pneumoniae; settings: by order of Table 1 K. pneumoniae ATCC 700603; concentration 200 μg/ml
Procedure: as §1
as §2, with “As a positive control, Penicillin G (at the same concentration) was used. • Incubation of the plates at 37±1° C. for 24 hours.” left out

C. freundii H44 BLEE+ [9] = experiment: Agar diffusion antibiogram (Example 1); assay type: cell-based, Citrobacter freundii; settings: by order of Table 1 C. freundii H44 BLEE+; concentration 50 μg/ml
Procedure: as §1
as §2, with “As a positive control, Penicillin G (at the same concentration) was used. • Incubation of the plates at 37±1° C. for 24 hours.” left out

Ps. aeruginosa MEXR [10] = experiment: Agar diffusion antibiogram (Example 2); assay type: cell-based, Pseudomonas aeruginosa; settings: concentration 50 μg/ml
Procedure: as §1, §3

Ps. aeruginosa DACB = experiment: Agar diffusion antibiogram (Example 2); assay type: cell-based, Pseudomonas aeruginosa; settings: concentration 50 μg/ml
Procedure: as §1, §3

Ps. aeruginosa PAO1 [11] = experiment: Agar diffusion antibiogram (Example 2); assay type: cell-based, Pseudomonas aeruginosa; settings: concentration 50 μg/ml
Procedure: as §1, §3

Ps. aeruginosa VIM2 [12] = experiment: Agar diffusion antibiogram (Example 2); assay type: cell-based, Pseudomonas aeruginosa; settings: concentration 50 μg/ml
Procedure: as §1, §3

Ps. aeruginosa OPRD [13] = experiment: Agar diffusion antibiogram (Example 2); assay type: cell-based, Pseudomonas aeruginosa; settings: concentration 50 μg/ml
Procedure: as §1, §3

E. coli W207 BLEE+ [14] = experiment: Agar diffusion antibiogram (Example 1); assay type: cell-based, Escherichia coli; settings: by order of Table 1 E. coli W207 BLEE+; concentration 50 μg/ml
Procedure: as §1, §2

E. coli C93 BLEE+ [15] = experiment: Agar diffusion antibiogram (Example 1); assay type: cell-based, Escherichia coli; settings: by order of Table 1 E. coli C93 BLEE+; concentration 50 μg/ml
Procedure: as §1, §2

E. coli not BLEE = experiment: Agar diffusion antibiogram (Example 1); assay type: cell-based, Escherichia coli; settings: concentration 50 μg/ml
Procedure: as §1, §2

E. coli H24 BLEE+ [16] = experiment: Agar diffusion antibiogram (Example 1); assay type: cell-based, Escherichia coli; settings: by order of Table 1 E. coli H24 BLEE+; concentration 50 μg/ml
Procedure: as §1, §2

E. coli ATCC 8739 = experiment: Agar diffusion antibiogram (Example 1); assay type: cell-based, Escherichia coli; settings: concentration 50 μg/ml
Procedure: as §1, §2

C. freundii H44 BLEE+ [17] = experiment: Agar diffusion antibiogram (Example 2); assay type: cell-based, Citrobacter freundii; settings: concentration 50 μg/ml
Procedure: as §1
as §3, with “As a positive control Penicillin G (at the same concentration) was used. • Incubation of the plates at 3±1° C. for 24 hours.” left out

K. pneumoniae BLEE+ = experiment: Agar diffusion antibiogram (Example 2); assay type: cell-based, Klebsiella pneumoniae; settings: concentration 200 μg/ml
Procedure: as §1
as §3, with “As a positive control Penicillin G (at the same concentration) was used. • Incubation of the plates at 3±1° C. for 24 hours.” left out

[18] = tested on: K. pneumoniae ATCC 700603; experiment: Agar diffusion antibiogram (Example 2); assay type: cell-based, Klebsiella pneumoniae; settings: concentration 200 μg/ml
Procedure: as §1
as §3, with “As a positive control Penicillin G (at the same concentration) was used. • Incubation of the plates at 3±1° C. for 24 hours.” left out

## CC1(C)S[C@@H]2[C@H](NC(=O)Cc3ccccc3)C(=O)N2[C@H]1C(=O)O [PG, penicillin G]
Ps. aeruginosa MEXR [1]
  Inhibition halos: <1 mm
Ps. aeruginosa PAO1 [2]
  Inhibition halos: <1 mm
Ps. aeruginosa VIM2 [3]
  Inhibition halos: <1 mm
Ps. aeruginosa OPRD [4]
  Inhibition halos: <1 mm
E. coli W207 BLEE+ [5]
  Inhibition halos: <1 mm
E. coli AC8 BLEE+
  Inhibition halos: <1 mm
E. coli C93 BLEE+ [6]
  Inhibition halos: <1 mm
E. coli H24 BLEE+ [7]
  Inhibition halos: <1 mm
K. pneumoniae (BLEE+)
  Inhibition halos: <1 mm
[8]
  Inhibition halos: <1 mm
C. freundii H44 BLEE+ [9]
  Inhibition halos: <1 mm
Ps. aeruginosa MEXR [10]
  Inhibition halos: <1 mm
Ps. aeruginosa DACB
  Inhibition halos: 9 mm
Ps. aeruginosa PAO1 [11]
  Inhibition halos: <1 mm
Ps. aeruginosa VIM2 [12]
  Inhibition halos: <1 mm
Ps. aeruginosa OPRD [13]
  Inhibition halos: <1 mm
E. coli W207 BLEE+ [14]
  Inhibition halos: <1 mm
E. coli C93 BLEE+ [15]
  Inhibition halos: <1 mm
E. coli not BLEE
  Inhibition halos: 21 mm
E. coli H24 BLEE+ [16]
  Inhibition halos: <1 mm
E. coli ATCC 8739
  Inhibition halos: 21 mm
C. freundii H44 BLEE+ [17]
  Inhibition halos: <1 mm
K. pneumoniae BLEE+
  Inhibition halos: <1 mm
[18]
  Inhibition halos: <1 mm
